Test results reported in US20250195474A1, “Piezo Inhibition for Wound Healing” (priority 2022, published 2025).
No end group written: not given here.

What was measured:
[1] = tested on: wound cells; assay: scRNA-seq and CellChat analysis of POD 14 wounds
[2] = tested on: existing scars; assay: CODEX spatial protein analysis of treated existing scars; assay type: in vivo, mouse
Text: To spatially phenotype the pig specimens, we used Co-Detection by Indexing (CODEX), a novel assay in which markers are labeled with oligonucleotide-conjugated antibodies and iteratively imaged between cyclic additions and washouts of dye-labeled oligonucleotides. A custom CODEX panel was designed to assess wound cells within the tissue see Table 1). In brief, primary antibodies were individually barcoded and validated using the commercial supplier's protocols. OCT for mouse or paraffin blocks for human xenograft (n=3 per group) were sectioned at 8 μm thickness onto coverslips for CODEX antibody staining. Antigens were retrieved by standard citrate-EDTA processing prior to addition of CODEX antibodies. Using a CODEX-integrated Keyence BZ-X instrument (Akoya Biosciences) image acquisition was then performed. Using software from Akoya Biosciences the raw images were process, with cell segmentation, and rendering.
The CODEX was visualized using Akoya Biosciences Multiplex Analysis Viewer (MAV) in ImageJ. The resulting .fcs files were then concatenated in FlowJo and imported into the Monocle3 and STvEA R packages for further analysis. After debris removal, the processed UMAP manifold was analyzed through Monocle3 with a post-manifold threshold of >10,000 cells per cluster. Analysis of the protein staining patterns was then used to assign cell types. The cell interactions were then inferred using STvEA for cell types at >2.5% of total abundance at k=20 nearest neighbors to quantify cell spatial interactions, and differential interaction maps were generated using graph scores.
To phenotype the spatial environment in the context of rescuing existing scars, CODEX was further employed to spatially define protein expression, cell populations, and associated cell-cell interactions (FIG. 10A; markers shown in Table 1 middle column, 39A). […]

[3] = tested on: human foreskin xenograft wounds; assay: Human foreskin xenograft wound model; assay type: in vivo; conditions: POD 14
Protocol: For the xenograft model, adult immunocompromised CD-1 nude mice were purchased from The Jackson Laboratory (Bar Harbor, ME). Mice were maintained at the Stanford University Research Animal Facility, SIM-1 Barrier Facility in accordance with Stanford University guidelines. All experiments were performed under an approved APLAC protocol (APLAC #11048). 3 mice were used for each group.
Discarded postnatal human foreskin samples were collected after circumcision at the Lucille Packard Children's Hospital at Stanford under a Stanford University Institutional Review Board (IRB) approved protocol (IRB #45219). Samples were not used if collected >8 hours after circumcision; samples were kept in Dulbecco's Modified Eagle Medium (ThermoFisher Scientific™, Waltham, MA) on ice until grafting. Foreskin was prepared by removal of all subcutaneous tissue, including muscle, and divided into 1 cm sections to be grafted.
Nude mice were induced and maintained with 2-4% isoflurane (Product: 502017, MWI Veterinary Supply Co.®; Boise, ID) at a rate of 2 L/min. While anesthetized, Betadine Surgical Scrub Veterinary (Avrio Health L.P.™, Stamford, CT) and sterile alcohol prep pads (FisherScientific™, Pittsburgh, PA) were used to prepare the dorsum. A 1.2 cm full-thickness excision of dorsal skin was created with forceps and sharp scissors. The foreskin graft was then placed into the full-thickness wound. […]

[4] = tested on: mouse adipocytes; assay: Proliferation and apoptosis assays for treatment toxicity; assay type: cell-based; conditions: 0.5x, 1x, 2x standard concentration [500 nm], 7 days
Protocol: P1i and P2i treated adipocytes (and fibroblast controls) were examined for treatment toxicity using proliferation and apoptosis assays. […] Then, cells were treated with either 0.5×, 1×, or 2× the standard concentration of Piezo1 or Piezo2 inhibitors [500 nm]. After 7 days of treatment, cells were fixed or harvested for analysis of potential toxicity. For proliferation, EdU (5-ethynyl-2′-deoxyuridine) incorporation in vitro was investigated on differentiated adipocytes and undifferentiated fibroblasts using the Click-iT™ EdU Cell Proliferation Kit for Imaging, Alexa Fluor™ 488 dye (ThermoFisher, Cat: C10337). Proliferation was detected according to the manufacturer's guidelines. To evaluate apoptosis, the Annexin V Apoptosis Detection Kit-AF647 (Abcam, Cat: 219919) was used according to the manufacturer's guidelines.

[5] = tested on: existing scars; assay: Treatment of existing scars during remodeling (scar rescue); assay type: in vivo, mouse
Text: While wound re-epithelialization is complete relatively quickly (around 2 weeks), wounds continue to heal beneath the surface for months to years in a process known as scar remodeling. (Foster et al., 2021; Gurtner et al., 2008) Remodeling is the longest and least well understood phase of wound repair but is likely critical to ultimate outcomes. We postulated that ADFs could continue to play a role in scarring during the remodeling process; if this were the case, we wondered whether ADF activity could be targeted during wound remodeling, via P1i in existing, actively remodeling scars, to ultimately reduce scarring and drive regeneration (FIG. 6A,C). Thus, we administered P1i to existing scars at POD 30 (early remodeling period), POD 75 (mid-remodeling), and POD 120 (late remodeling), then harvested tissue one month later at POD 60, POD 105, and […] respectively (FIG. 6A, C).

[6] = treated at POD 30, 75 or 120, harvested one month later

Substance: GsMTx4 (GCLEFWWKCNPNDDKCCRPKLKCSKLFKLCNFSF; ends and bridges not checked; cysteine pairing not given here; UniProt Q7YT39 47-80, looked up) [P1i]
- relative adipocytes and fibroblasts among sequenced wound cells ([1]; POD 14): relatively more adipocytes and fewer fibroblasts
- CellChat interactions between cluster 5 fibroblasts and adipocytes ([1]; POD 14, vs control wounds): enhanced interactions between cluster 5 fibroblasts and adipocytes
- CellChat signaling of adipocyte pathways (Leptin, Chemerin, PD-L1) ([1]; POD 14, vs control wounds): enhanced signaling of known adipocyte pathways
- CellChat signaling of cluster 5 fibroblasts with other cell types ([1]; POD 14, vs control wounds): increase in signaling between cluster 5 fibroblasts and most other cell types
- adipocyte cluster 2 interactions with epithelial cells ([2]; POD 60, 105 and 150): interacted more strongly with epithelial cells
- expression of mechanical markers ([2]; POD 60, 105 and 150): PBS treated wounds showed higher expression of mechanical markers
- interactions mediated by adipocyte clusters ([2]; vs PBS treated scars): enriched interactions mediated by adipocyte cluster 2
- ECM ultrastructure [3]: indistinguishable from that of unwounded xenograft skin
- percentage of cells positive for EdU, annexin V or DAPI by FACS [4]: None of the markers' expression was significantly different
- organization of hair follicles ([5]; POD 105 and 120 vs POD 60): less organized than those at POD 60
- ADFs in late treated wounds ([5]; late treatment of existing scars): significantly reduced
- ECM architecture in existing scars [5, 6]: full recovery of unwounded-like ECM architecture
- hair follicles in existing scars [5, 6]: return of hair follicles
- wound regeneration in existing scars [5, 6]: near-complete wound regeneration
